# Laboratory results published in patent US8686126B2, “HBV drug resistance methods” (priority 2002, dated 2014).
# System: HBsAg
# Assay: Serum levels of HBsAg by modified Laurell electrophoresis in HBV-infected patient No. 7
# Format: in vivo
# Settings: lamivudine treatment, just after breakthrough virus emerged
# Procedure: HBsAg, anti-HBs, HBeAg, anti-HBe, and anti-HCV were determined by the microparticle enzyme-immunoassay ([…]) method (Abbott Laboratories, North Chicago, Ill., US). Anti-HDV enzyme-immunoassay method was performed as per the methodology supplied by the manufacturer (Abbott Laboratories, North Chicago, Ill., US). Serum levels of HBsAg were determined by a modified Laurell electrophoresis system (Gerlich et al., 1975). HBV-DNA levels were tested by using a commercial liquid-hybridization assay (Digene, Maryland, US), with the lower limit of detection of this assay 5 pg/mL of viral DNA.
# The HBsAg level of the patient was 1.19 μg/mL at the beginning of the lamivudine treatment and became undetectable after 4 months.
smiles,measurement,value
"Nc1ccn([C@@H]2CS[C@H](CO)O2)c(=O)n1 [lamivudine, beta-L-(−)-2′,3′-dideoxy-3′-thiacytidine]",HBsAg level,10.8 µg/mL
